This is an account of results in patent publication US20240252454A1, “COMPOSITION COMPRISING AN INHIBITOR OF MITOCHONDRIAL TRANSCRIPTION” (LEAD DISCOVERY CENTER GMBH, priority 2021, published 2024).

Holding throughout (test): SRB assay, IMT combined with inhibitor
What all share (type): cell-based
A general note: Sulforhodamine B stains cellular protein and so reports cell mass.

The subject of one experiment is HCT116. Particulars: HCT116 (colon); concentration series of the labelled inhibitor + fixed concentration of IMT (3S)-1-[(2R)-2-[4-(2-chloro-4-fluoro-phenyl)-2-oxo-chromen-7-yl]oxypropanoyl]piperidine-3-carboxylic acid (Table 3: 40 nM, 120 h); negative=synergistic, positive=antagonistic. The essentials: (§1)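 Combination growth assay: MAPK signalling SOC titration on a background of 40 nM chromenone piperidine-3-carboxylic acid, 120 h, physiological 5 mM glucose, SRB read-out relative to untreated cells.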

A further experiment deals with CALU6. Particulars: CALU6 (lung); concentration series of the labelled inhibitor + fixed concentration of IMT (3S)-1-[(2R)-2-[4-(2-chloro-4-fluoro-phenyl)-2-oxo-chromen-7-yl]oxypropanoyl]piperidine-3-carboxylic acid (Table 3: 40 nM, 120 h); negative=synergistic, positive=antagonistic. The essentials: as §1
Another experiment relates to HT1080. The conditions noted are these: HT1080 (connective tissue); concentration series of the labelled inhibitor + fixed concentration of IMT (3S)-1-[(2R)-2-[4-(2-chloro-4-fluoro-phenyl)-2-oxo-chromen-7-yl]oxypropanoyl]piperidine-3-carboxylic acid (Table 3: 40 nM, 120 h); negative=synergistic, positive=antagonistic. The essentials: as §1
Another experiment relates to U87MG. The conditions noted are these: U87MG (brain); concentration series of the labelled inhibitor + fixed concentration of IMT (3S)-1-[(2R)-2-[4-(2-chloro-4-fluoro-phenyl)-2-oxo-chromen-7-yl]oxypropanoyl]piperidine-3-carboxylic acid (Table 3: 40 nM, 120 h); negative=synergistic, positive=antagonistic. The essentials:
as §1

In another experiment the test system is SKMEL5. Particulars: SKMEL5 (skin); concentration series of the labelled inhibitor + fixed concentration of IMT (3S)-1-[(2R)-2-[4-(2-chloro-4-fluoro-phenyl)-2-oxo-chromen-7-yl]oxypropanoyl]piperidine-3-carboxylic acid (Table 3: 40 nM, 120 h); negative=synergistic, positive=antagonistic. A digest of the protocol: as §1
For another experiment, the system named is A673. The conditions noted are these: A673 (muscle); concentration series of the labelled inhibitor + fixed concentration of IMT (3S)-1-[(2R)-2-[4-(2-chloro-4-fluoro-phenyl)-2-oxo-chromen-7-yl]oxypropanoyl]piperidine-3-carboxylic acid (Table 3: 40 nM, 120 h); negative=synergistic, positive=antagonistic. The essentials: as §1
The subject of the next experiment is DU145. Particulars: DU145 (prostate); concentration series of the labelled inhibitor + fixed concentration of IMT (3S)-1-[(2R)-2-[4-(2-chloro-4-fluoro-phenyl)-2-oxo-chromen-7-yl]oxypropanoyl]piperidine-3-carboxylic acid (Table 3: 40 nM, 120 h); negative=synergistic, positive=antagonistic. The essentials:
as §1

The subject of a further experiment is HELA. Particulars: HELA (cervix); concentration series of the labelled inhibitor + fixed concentration of IMT (3S)-1-[(2R)-2-[4-(2-chloro-4-fluoro-phenyl)-2-oxo-chromen-7-yl]oxypropanoyl]piperidine-3-carboxylic acid (Table 3: 40 nM, 120 h); negative=synergistic, positive=antagonistic. The essentials:
as §1

For the next experiment, the system named is COLO205. Particulars: COLO205 (colon); concentration series of the labelled inhibitor + fixed concentration of IMT (3S)-1-[(2R)-2-[4-(2-chloro-4-fluoro-phenyl)-2-oxo-chromen-7-yl]oxypropanoyl]piperidine-3-carboxylic acid (Table 3: 40 nM, 120 h); negative=synergistic, positive=antagonistic. A digest of the protocol:
as §1

For another experiment, the system named is HCT15. The conditions noted are these: HCT15 (colon); concentration series of the labelled inhibitor + fixed concentration of IMT (3S)-1-[(2R)-2-[4-(2-chloro-4-fluoro-phenyl)-2-oxo-chromen-7-yl]oxypropanoyl]piperidine-3-carboxylic acid (Table 3: 40 nM, 120 h); negative=synergistic, positive=antagonistic. The essentials:
as §1

A further experiment relates to A375. Particulars: A375 (skin); concentration series of the labelled inhibitor + fixed concentration of IMT (3S)-1-[(2R)-2-[4-(2-chloro-4-fluoro-phenyl)-2-oxo-chromen-7-yl]oxypropanoyl]piperidine-3-carboxylic acid (Table 3: 40 nM, 120 h); negative=synergistic, positive=antagonistic. A digest of the protocol:
as §1

In another experiment the test system is GRANTA-519. Particulars: GRANTA-519 (hematological); concentration series of the labelled inhibitor + fixed concentration of IMT (3S)-1-[(2R)-2-[4-(2-chloro-4-fluoro-phenyl)-2-oxo-chromen-7-yl]oxypropanoyl]piperidine-3-carboxylic acid (Table 3: 40 nM, 120 h); negative=synergistic, positive=antagonistic. The essentials:
as §1

The test system of the next experiment is BXPC3. Particulars: BXPC3 (pancreas); concentration series of the labelled inhibitor + fixed concentration of IMT (3S)-1-[(2R)-2-[4-(2-chloro-4-fluoro-phenyl)-2-oxo-chromen-7-yl]oxypropanoyl]piperidine-3-carboxylic acid (Table 3: 40 nM, 120 h); negative=synergistic, positive=antagonistic. A digest of the protocol: as §1
The next experiment deals with MHHES1. The conditions noted are these: MHHES1 (bone); concentration series of the labelled inhibitor + fixed concentration of IMT (3S)-1-[(2R)-2-[4-(2-chloro-4-fluoro-phenyl)-2-oxo-chromen-7-yl]oxypropanoyl]piperidine-3-carboxylic acid (Table 3: 40 nM, 120 h); negative=synergistic, positive=antagonistic. The essentials:
as §1

Take `COc1c(OCCCN2CCOCC2)ccc2c1N=C(NC(=O)c1cnc(N)nc1)N1CCN=C21` [BAY 80-6946, 2-Amino-N-{7-methoxy-8-[3-(4-morpholinyl)propoxy]-2,3-dihydroimidazo[1,2-c]quinazolin-5-yl}-5-pyrimidinecarboxamide]: the “difference between the calculated combinatorial index (BLISS) and the observed combinatorial effect” value with HCT116 is −0.0195; in the experiment on CALU6, 0.0374; in the experiment on HT1080, −0.0627; in the experiment on U87MG it was 0.0243; in the experiment on SKMEL5 it was −0.0994; with A673, 0.0259. For the same molecule, the “difference between the calculated combinatorial index (BLISS) and the observed combinatorial effect” value in the experiment with DU145 was 0.0423; in the experiment with HELA, −0.0260; in the experiment with COLO205, 0.0531; in the experiment on HCT15, 0.1444; in the experiment with A375, −0.0033; in the experiment with GRANTA-519 it was 0.0631. Besides, the “difference between the calculated combinatorial index (BLISS) and the observed combinatorial effect” value in the experiment on BXPC3 is reported as −0.0082.
As for `C[C@H](Nc1ncnc2nc[nH]c12)c1cc2cccc(Cl)c2c(=O)n1-c1ccccc1` [Duvelisib], the “difference between the calculated combinatorial index (BLISS) and the observed combinatorial effect” value is given as −0.0213 with HCT116; 0.0342 with CALU6; −0.0565 with HT1080; 0.0433 in the experiment on U87MG; −0.1083 with SKMEL5; 0.0570 in the experiment on A673. For the same molecule, the “difference between the calculated combinatorial index (BLISS) and the observed combinatorial effect” value was 0.0362 with DU145; −0.0666 in the experiment with HELA; −0.0157 in the experiment on COLO205; 0.0170 with HCT15; −0.0153 in the experiment on A375; 0.0770 in the experiment on GRANTA-519. Moreover, in the experiment with BXPC3, the “difference between the calculated combinatorial index (BLISS) and the observed combinatorial effect” value is reported as −0.0109.
For `Cn1cnc2c(F)c(Nc3ccc(Br)cc3Cl)c(C(=O)NOCCO)cc21` [Selumetinib], the “difference between the calculated combinatorial index (BLISS) and the observed combinatorial effect” value in the experiment with HCT116 is −0.0774; with CALU6, 0.0376; in the experiment on MHHES1, 0.0218; with HT1080, −0.0139; in the experiment with U87MG, 0.0486; in the experiment with SKMEL5, −0.0968. For the same molecule, the “difference between the calculated combinatorial index (BLISS) and the observed combinatorial effect” value with A673 is listed as 0.0313; in the experiment with DU145 it was 0.0383; with HELA, 0.0054; with COLO205, 0.0142; with HCT15 it was 0.0320; in the experiment with A375, 0.0423. Besides, the entries for the “difference between the calculated combinatorial index (BLISS) and the observed combinatorial effect” value in the experiment on GRANTA-519 and with BXPC3 were 0.0050 and −0.0219, respectively.
For `CS(=O)(=O)N1CCN(Cc2cc3nc(-c4cccc5[nH]ncc45)nc(N4CCOCC4)c3s2)CC1` [GDC-0941, 2-(1H-Indazol-4-yl)-6-[[4-(methylsulfonyl)-1-piperazinyl]methyl]-4-(4-morpholinyl)thieno[3,2-d]pyrimidine], the “difference between the calculated combinatorial index (BLISS) and the observed combinatorial effect” value in the experiment with HCT116 is listed as −0.0464; with CALU6, −0.0406; in the experiment with HT1080, 0.0172; with U87MG, 0.1078; in the experiment with SKMEL5, −0.0915; in the experiment with A673 it was 0.0099. The “difference between the calculated combinatorial index (BLISS) and the observed combinatorial effect” value in the experiment with DU145 was 0.0436; with HELA, −0.0531; in the experiment on COLO205, 0.0355; with HCT15, 0.0270; with A375, −0.0654; with GRANTA-519, 0.0647. Also, the “difference between the calculated combinatorial index (BLISS) and the observed combinatorial effect” value in the experiment with BXPC3 is given as 0.0704.
Consider `O=C(c1cc(Cc2n[nH]c(=O)c3ccccc23)ccc1F)N1CCN(C(=O)C2CC2)CC1` [Olaparib], for which the “difference between the calculated combinatorial index (BLISS) and the observed combinatorial effect” value in the experiment with HCT116 is listed as −0.0690; in the experiment with CALU6, 0.0400; in the experiment with MHHES1, 0.0269; in the experiment on U87MG, 0.0523; in the experiment on A673, 0.0334; in the experiment with DU145, 0.0557. For the same molecule, the “difference between the calculated combinatorial index (BLISS) and the observed combinatorial effect” value was −0.0307 in the experiment on HELA; −0.0607 in the experiment with COLO205; −0.0472 in the experiment with HCT15; −0.0650 with A375; −0.0088 with GRANTA-519; 0.0315 with BXPC3.
